Source: publication PMC10746280, “Bacterial efflux pump modulators prevent bacterial growth in macrophages and under broth conditions that mimic the host environment” (mBio, 2023)

How the values were obtained:
RAW 264.7 macrophages = test: SAFIRE macrophage assay: host toxicity (adherent macrophage count, morphology); type: cell-based
Procedure, shortened: (§1)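 RAW 264.7 macrophages infected with S. Typhimurium SL1344 sifB::gfp (MOI ~30), gentamicin 40 µg/mL, then compound from 2 h to 18 h post-infection. Confocal imaging with MitoTracker and DAPI; toxicity as adherent MitoTracker-positive macrophage count, bacterial load as GFP+ macrophage area.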

[1] = system: S. Typhimurium SL1344 (sifB::gfp) in RAW 264.7 macrophages; test: SAFIRE macrophage assay: intracellular bacterial load (GFP signal within macrophages); type: cell-based, Salmonella enterica serotype Typhimurium; conditions: for IC50: Salmonella enterica, TYPHIMURIUM, RAW264.7, read-out: SAFIRE IC50
Procedure, shortened: as §1

[2] = 5 uM, 'Toxic' given instead of a score
[3] = 25 uM, 'Toxic' given instead of a score
[4] = 5 uM compound, n=1, DMSO solvent control = 100
[5] = 25 uM compound, n=1, DMSO solvent control = 100
[6] = 5 uM compound, n=1, DMSO solvent control = 98, rifampicin 2 μg/mL = 65
[7] = 25 uM compound, n=1, DMSO solvent control = 98, rifampicin 2 μg/mL = 65

Compound	5 uM Avg Cell # Score (RAW 264.7 macrophages; 5 uM)	25 uM Avg Cell # Score (RAW 264.7 macrophages; 25 uM)	5 uM Avg Antibacterial Score [1, 2]	25 uM Avg Antibacterial Score [1, 3]	5 uM Avg Cell # Score (RAW 264.7 macrophages; [4])	25 uM Avg Cell # Score (RAW 264.7 macrophages; [5])	5 uM Avg Antibacterial Score [1, 6]	25 uM Avg Antibacterial Score [1, 7]	IC50 [1]
OC(COc1ccccc1Cl)CN1CCC(Nc2nccc(C(F)(F)F)n2)CC1 (centres unmarked) [CU040]	84	114	109	19	–	–	–	–	–
COCC1CCCN1CC(O)COc1ccc(Cl)c(Cl)c1 (centres unmarked) [CU128]	85	85	98	32	–	–	–	–	–
NC1CCN(CC(O)COc2ccccc2Cl)CC1 (centres unmarked) [CU189]	107	109	61	49	–	–	–	–	–
OC(COc1ccc(Cl)c(Cl)c1)CN1CCC(F)C1 (centres unmarked) [CU125]	81	86	102	73	–	–	–	–	–
CN1CCC(N(C)CC(O)COc2ccc(Cl)c(Cl)c2)C1 (centres unmarked) [CU175]	108	95	65	22	–	–	–	–	–
OC(CNC1CCNCC1)COc1ccc(Cl)cc1 (centres unmarked) [CU198]	110	110	83	34	–	–	–	–	–
OC(COc1ccc2c(c1)OCO2)CN1CCC(Nc2nccc(C(F)(F)F)n2)CC1 (centres unmarked) [CU080]	86	91	96	7.4	–	–	–	–	–
OC(COc1ccc2c(c1)OCO2)CN1CCC(Nc2nccc(C(F)(F)F)n2)C1 (centres unmarked) [CU099]	77	102	104	25	–	–	–	–	–
CNC(=O)C1CCN(CC(O)COc2ccc(Cl)c(Cl)c2)CC1 (centres unmarked) [CU057]	85	89	101	93	–	–	–	–	–
OC(COc1cc(F)cc(Br)c1)CN1CCC(Nc2nccc(C(F)(F)F)n2)CC1 (centres unmarked) [CU119]	72	50	13	Toxic	–	–	–	–	–
COC(COc1ccc(Cl)c(Cl)c1)CN1CCC(N)CC1 (centres unmarked) [CU242]	–	–	–	–	123	109	28	9	–
N#Cc1cccc(OCC(O)CN2CCC(Nc3nccc(C(F)(F)F)n3)CC2)c1 (centres unmarked) [CU082]	89	85	100	19	–	–	–	–	–
OC(COc1cc(Cl)cc(Cl)c1)CN1CCC(Nc2nccc(C(F)(F)F)n2)CC1 (centres unmarked) [CU101]	71	73	9	Toxic	–	–	–	–	–
N[C@H]1CC[C@@H](N2CC(COc3cc(Cl)cc(Cl)c3)OC2=O)CC1 (some centres unmarked) [CU218]	163	131	83	15	–	–	–	–	–
COc1ccc(OCC(O)CN2CCC(Nc3nccc(C(F)(F)F)n3)CC2)cc1 (centres unmarked) [CU036]	54	120	102	24	–	–	–	–	–
CC1(N)CCN(CC(O)COc2cc(Cl)cc(Cl)c2)CC1 (centres unmarked) [CU243]	–	–	–	–	129	90	21	12	–
O=C(NC1CCN(CC(O)COc2ccc(Cl)c(Cl)c2)C1)c1ccccc1 (centres unmarked) [CU068]	80	49	20	Toxic	–	–	–	–	–
OC(COc1ccc2cc[nH]c2c1)CN1CCC(Nc2nccc(C(F)(F)F)n2)CC1 (centres unmarked) [CU117]	66	74	3.65	Toxic	–	–	–	–	–
OC(COc1cc(Cl)cc(Cl)c1)CN1CCC(n2ccnc2)CC1 (centres unmarked) [CU234]	–	–	–	–	134	108	40	12	–
OC(COc1ccc(-c2ccccc2)cc1)CN1CCC(Nc2nccc(C(F)(F)F)n2)CC1 (centres unmarked) [CU077]	35	114	11	Toxic	–	–	–	–	–
NCCC1CCN(CC(O)COc2cc(Cl)cc(Cl)c2)CC1 (centres unmarked) [CU250]	–	–	–	–	115	26	20	Toxic	–
O[C@@H](COc1ccc(Cl)c(Cl)c1)CN1CCC(Nc2nccc(C(F)(F)F)n2)CC1 [CU138]	85	75	7	Toxic	–	–	–	–	–

Compound	5 uM Avg Cell # Score (RAW 264.7 macrophages; 5 uM)	25 uM Avg Cell # Score (RAW 264.7 macrophages; 25 uM)	5 uM Avg Antibacterial Score [1, 2]	25 uM Avg Antibacterial Score [1, 3]	5 uM Avg Cell # Score (RAW 264.7 macrophages; [4])	25 uM Avg Cell # Score (RAW 264.7 macrophages; [5])	5 uM Avg Antibacterial Score [1, 6]	25 uM Avg Antibacterial Score [1, 7]	IC50 [1]
N[C@@H]1CCN(CC(O)COc2cc(Cl)cc(Cl)c2)C1 (some centres unmarked) [CU203]	98	106	33	9	–	–	–	–	–
OC(COc1ccccc1)CN1CCC(Nc2ncccn2)CC1 (centres unmarked) [CU043]	69	107	106	81	–	–	–	–	–
O=C1CCCN1C1CCN(CC(O)COc2ccc(Cl)c(Cl)c2)CC1 (centres unmarked) [CU060]	100	99	98	83	–	–	–	–	–
OC(COc1ccc(Cl)c(Cl)c1)CN1CC2CC(C1)O2 (centres unmarked) [CU223]	106	100	104	103	–	–	–	–	–
CNC1CCN(C[C@H](O)COc2ccc(Cl)c(Cl)c2)C1 (some centres unmarked) [CU162]	124	126	68	46	–	–	–	–	–
OC(COc1ccc(Cl)c(Cl)c1)CN1CCN(C2CC2)CC1 (centres unmarked) [CU182]	102	101	105	73	–	–	–	–	–
Cc1cc(CNCC(O)COc2ccc(Cl)c(Cl)c2)sc1C (centres unmarked) [CU135]	75	103	52	Toxic	–	–	–	–	–
OC(COc1cccc(Cl)c1)CN1CCC(Nc2nccc(C(F)(F)F)n2)C1 (centres unmarked) [CU085]	92	33	47	Toxic	–	–	–	–	–
OC(COc1ccc(Cl)c(Cl)c1)CN1CCCNCC1 (centres unmarked) [CU145]	94	120	69	39	–	–	–	–	–
N[C@H]1CCN(C[C@@H](O)COc2ccc(Cl)c(Cl)c2)C1 [CU240]	–	–	–	–	118	105	29	10	9.1 nM
OC(COc1ccccc1C(F)(F)F)CN1CCC(Nc2nccc(C(F)(F)F)n2)CC1 (centres unmarked) [CU106]	79	44	8	Toxic	–	–	–	–	–
OC(COc1ccc(Cl)cc1Cl)CN1CCC(Nc2nccc(C(F)(F)F)n2)C1 (centres unmarked) [CU087]	98	78	36	Toxic	–	–	–	–	–
N[C@H]1CCN(CC(O)COc2cc(Cl)cc(Cl)c2)C1 (some centres unmarked) [CU204]	93	101	28	8.51	–	–	–	–	–
N[C@@H]1CCN(CC(O)COc2ccc(Cl)c(Cl)c2)C1 (some centres unmarked) [CU193]	100	98	28	14	–	–	–	–	11.5 nM
N#Cc1ccc(OCC(O)CN2CCC(Nc3nccc(C(F)(F)F)n3)C2)cc1 (centres unmarked) [CU094]	91	71	105	41	–	–	–	–	–
OC(COc1ccc(Cl)c(Cl)c1)CN1CC2CC1CO2 (centres unmarked) [CU225]	114	101	98	73	–	–	–	–	–
NC1CCN(CC(O)COc2c(Cl)cccc2Cl)CC1 (centres unmarked) [CU192]	96	92	52	30	–	–	–	–	6.9 nM
NCC1CCN(CC(O)COc2ccc(Cl)c(Cl)c2)C1 (centres unmarked) [CU206]	124	87	25	12	–	–	–	–	–
CC(C)(C)OC(=O)NC1CCN(CC(O)COc2ccc(Cl)c(Cl)c2)C1 (centres unmarked) [CU031]	88	140	102	Toxic	–	–	–	–	–
N=C(N)NC1CCN(CC(O)COc2ccc(Cl)c(Cl)c2)C1 (centres unmarked) [CU197]	109	117	103	87	–	–	–	–	–
OC(CNC1Cc2ccccc2C1)COc1ccc(Cl)c(Cl)c1 (centres unmarked) [CU159]	117	97	102	Toxic	–	–	–	–	–
NC(=O)C1CCN(CC(O)COc2ccc(Cl)c(Cl)c2)C1 (centres unmarked) [CU065]	80	87	106	90	–	–	–	–	–
